Experimental data: PubChem BioAssay (NCI)
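Where inhibition never reached the appropriate level, the endpoint shown equals the highest concentration tested. Otherwise, values were interpolated linearly from a five-concentration, 48-hour dose response in 96-well plates. TGI marks complete inhibition of growth.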

What was measured:
Experiment in all cases: NCI-60 cell line screen, 48 h
[1] = test system: HCT-116 colon
[2] = test system: HCT-15 colon
[3] = test system: HS 578T breast
[4] = test system: K-562 leukemia
[5] = test system: MDA-MB-231 breast
[6] = test system: MDA-MB-435
[7] = test system: NCI-H23 lung
[8] = test system: OVCAR-8 ovarian
[9] = test system: RPMI-8226 leukemia
[10] = test system: RXF 393 renal
[11] = test system: SF-268 CNS
[12] = test system: SF-539 CNS
[13] = test system: SNB-75 CNS
[14] = test system: HL-60(TB) leukemia
[15] = test system: MALME-3M melanoma
[16] = test system: SK-MEL-5 melanoma
[17] = test system: BT-549 breast

Row | SMILES | TGI [1] | TGI [2] | TGI [3] | TGI [4] | TGI [5] | TGI [6] | TGI [7] | TGI [8] | TGI [9] | TGI [10] | TGI [11] | TGI [12] | TGI [13] | TGI [14] | TGI [15] | TGI [16] | TGI [17]
1 | CN(C)c1nc(NN)c2c(-c3ccccc3)c(-c3ccccc3)oc2n1 | > 100 µM | > 100 µM | > 100 µM | > 100 µM | > 100 µM | > 100 µM | > 100 µM | > 100 µM | > 100 µM | > 100 µM | > 100 µM | > 100 µM | > 100 µM | – | – | – | –
2 | O=S(CCCl)c1c2ccccc2nc2ccccc12 (stereo unspecified) | > 100 µM | > 100 µM | – | > 100 µM | > 100 µM | > 100 µM | > 100 µM | > 100 µM | – | > 100 µM | > 100 µM | > 100 µM | > 100 µM | > 100 µM | > 100 µM | – | –
3 | CCCCCCCC/C=C\CCCCCCCC(=O)NCCN(CCN)C(=O)CCCCCCC/C=C\CCCCCCCC | > 100 µM | > 100 µM | – | > 100 µM | – | – | > 100 µM | > 100 µM | > 100 µM | – | > 100 µM | – | – | > 100 µM | > 100 µM | > 100 µM | –
4 | CC(NC(=O)OC(C)(C)C)C(=O)C(N)=O (stereo unspecified) | > 100 µM | > 100 µM | > 100 µM | > 100 µM | > 100 µM | > 100 µM | > 100 µM | > 100 µM | > 100 µM | – | > 100 µM | > 100 µM | > 100 µM | > 100 µM | – | > 100 µM | –
5 | N/N=C1\CCCc2c1no[n+]2[O-] | > 100 µM | > 100 µM | > 100 µM | > 100 µM | > 100 µM | > 100 µM | > 100 µM | > 100 µM | > 100 µM | > 100 µM | > 100 µM | > 100 µM | > 100 µM | > 100 µM | > 100 µM | > 100 µM | –
6 | CC(=O)O[C@H]1C(=O)[C@@]2(C)C(C(OC(=O)c3ccccc3)[C@]3(O)CC(OC(=O)C(O)C(NC(=O)c4ccc(C)cc4)c4ccccc4)C(C)=C1C3(C)C)[C@]1(OC(C)=O)CO[C@@H]1C[C@@H]2O (stereo partly specified) | 0.411 µM | 3.29 µM | – | 5.77 µM | – | – | > 25 µM | > 25 µM | 6.77 µM | 0.143 µM | > 25 µM | 0.0119 µM | 0.0486 µM | 3.35 µM | 11.5 µM | 16.8 µM | –
7 | CCOP(=O)(OCC)/C(C#N)=C/c1cccn1CC(C)C | > 100 µM | > 100 µM | – | > 100 µM | > 100 µM | > 100 µM | > 100 µM | > 100 µM | – | > 100 µM | > 100 µM | > 100 µM | > 100 µM | – | > 100 µM | > 100 µM | > 100 µM
8 | CC(C)NCC(O)c1ccc(OCc2ccccc2)c(OCc2ccccc2)c1-c1ccccc1 (stereo unspecified) | 3.17 µM | 3.22 µM | 2.74 µM | – | 3.16 µM | – | – | 3.17 µM | – | > 100 µM | 11.8 µM | 2.98 µM | 2.54 µM | – | 3.16 µM | 2.5 µM | –
9 | O=c1ccn2n1CCCCC2 | > 100 µM | > 100 µM | > 100 µM | > 100 µM | > 100 µM | > 100 µM | > 100 µM | > 100 µM | > 100 µM | > 100 µM | > 100 µM | > 100 µM | – | > 100 µM | > 100 µM | > 100 µM | –
10 | CCOP(=O)(C=C=C(C)C)OCC | > 100 µM | > 100 µM | > 100 µM | > 100 µM | – | > 100 µM | > 100 µM | > 100 µM | – | > 100 µM | > 100 µM | > 100 µM | > 100 µM | > 100 µM | > 100 µM | > 100 µM | –
11 | FC(F)(Sc1ccccc1)c1nc2ccccc2o1 | > 100 µM | > 100 µM | – | > 100 µM | > 100 µM | > 100 µM | > 100 µM | > 100 µM | > 100 µM | > 100 µM | > 100 µM | > 100 µM | – | – | > 100 µM | > 100 µM | > 100 µM
12 | COC(=O)[C@]1(C)CCC[C@@]2(C)C1CCC1=CC3(C(C)C)CCC12OO3 (stereo partly specified) | > 100 µM | > 100 µM | – | > 100 µM | – | – | > 100 µM | > 100 µM | > 100 µM | – | > 100 µM | > 100 µM | – | 37.8 µM | > 100 µM | > 100 µM | –
13 | CC(CO)C1=CC(C#CCOCc2ccccc2)N(C(=O)Oc2ccccc2)c2ccccc21 (stereo unspecified) | > 100 µM | 29.7 µM | 53.5 µM | > 100 µM | > 100 µM | 47.9 µM | 39.8 µM | > 100 µM | > 100 µM | 23 µM | > 100 µM | > 100 µM | > 100 µM | > 100 µM | – | 74.5 µM | –
14 | N#Cc1cc([N+](=O)[O-])ccc1NC(=O)C(=O)C(C(=O)/C=C/c1ccccc1)C1OC(=O)c2ccccc21 (stereo unspecified) | > 100 µM | > 100 µM | – | > 100 µM | – | – | > 100 µM | > 100 µM | – | > 100 µM | > 100 µM | > 100 µM | > 100 µM | > 100 µM | > 100 µM | > 100 µM | –
15 | COc1ccc([C@H]2CC(=O)NCCCCN2)cc1 | > 100 µM | > 100 µM | – | > 100 µM | – | – | > 100 µM | > 100 µM | > 100 µM | > 100 µM | > 100 µM | > 100 µM | > 100 µM | – | > 100 µM | > 100 µM | –
16 | Cc1n[nH]c(=O)n1/N=C/c1c[nH]c2ccccc12 | > 100 µM | > 100 µM | – | > 100 µM | > 100 µM | > 100 µM | > 100 µM | > 100 µM | > 100 µM | 82.3 µM | > 100 µM | > 100 µM | > 100 µM | – | > 100 µM | – | > 100 µM
17 | O=C(Nc1c(O)[nH]c(=S)[nH]c1=O)c1ccc2ccccc2n1 | > 100 µM | > 100 µM | – | > 100 µM | – | – | > 100 µM | > 100 µM | > 100 µM | – | > 100 µM | > 100 µM | > 100 µM | > 100 µM | > 100 µM | > 100 µM | –
18 | CCOC(=O)C1=c2[nH]c3cccc4cccc(c43)n2C=C(C(C)=O)C1CC(C)=O (stereo unspecified) | > 100 µM | > 100 µM | – | > 100 µM | – | > 100 µM | > 100 µM | > 100 µM | > 100 µM | > 100 µM | – | – | > 100 µM | 59.2 µM | – | > 100 µM | > 100 µM
19 | N#CC(c1cc2c(cc1Br)OCO2)N1CCOCC1 (stereo unspecified) | > 100 µM | – | 83.8 µM | 57.1 µM | > 100 µM | 18.4 µM | > 100 µM | > 100 µM | > 100 µM | 51.6 µM | > 100 µM | 92.1 µM | 99.6 µM | 25.7 µM | > 100 µM | > 100 µM | –
20 | O=C(NCCO)Nc1c(C(F)(F)F)cc(-c2ccccc2)[nH]c1=O | > 100 µM | > 100 µM | – | > 100 µM | > 100 µM | > 100 µM | > 100 µM | > 100 µM | > 100 µM | > 100 µM | – | – | – | > 100 µM | – | > 100 µM | > 100 µM
21 | O=C1CC2(CCNCC2)C(=O)N1N1CCCC1 | > 100 µM | > 100 µM | – | > 100 µM | > 100 µM | > 100 µM | > 100 µM | > 100 µM | > 100 µM | > 100 µM | – | > 100 µM | – | > 100 µM | > 100 µM | > 100 µM | > 100 µM
22 | COc1nc2sc3c(c2c(=O)n1CCCSSCCCn1c(OC)nc2sc4c(c2c1=O)CCCC4)CCCC3 | > 100 µM | > 100 µM | – | > 100 µM | > 100 µM | > 100 µM | > 100 µM | > 100 µM | > 100 µM | > 100 µM | – | > 100 µM | > 100 µM | – | > 100 µM | > 100 µM | –
23 | CCCCCCCCCCCCCCCCCCOCC(CO[P+](=O)O)OCCCCCCCCCCCCCCCCCC (stereo unspecified) | > 50 µM | > 50 µM | > 50 µM | > 50 µM | > 50 µM | > 50 µM | – | > 50 µM | > 50 µM | > 50 µM | > 50 µM | > 50 µM | > 50 µM | > 50 µM | – | > 50 µM | –
24 | COC(=O)CCn1cnc2c(SC)ncnc21 | > 100 µM | – | > 100 µM | > 100 µM | > 100 µM | > 100 µM | > 100 µM | > 100 µM | > 100 µM | > 100 µM | > 100 µM | > 100 µM | > 100 µM | > 100 µM | > 100 µM | > 100 µM | –
25 | CCOC(=O)NC(NC(C)CC)(C(F)(F)F)C(F)(F)F (stereo unspecified) | > 100 µM | > 100 µM | > 100 µM | > 100 µM | > 100 µM | > 100 µM | > 100 µM | > 100 µM | > 100 µM | > 100 µM | > 100 µM | > 100 µM | > 100 µM | > 100 µM | > 100 µM | > 100 µM | –
26 | CC(C)OP(=O)(OC(C)C)C(=Nc1ccccc1)NNc1ccc([N+](=O)[O-])cc1 | 31.2 µM | > 100 µM | – | > 100 µM | – | – | > 100 µM | > 100 µM | 70.4 µM | – | > 100 µM | > 100 µM | > 100 µM | 46.2 µM | 50 µM | 27.1 µM | –
